In one data set the target is T1, NHE3 (Homo sapiens, UniProt P48764).
T1 construct: host or cells: cells, not specified
T1 sequence (P48764 26-834): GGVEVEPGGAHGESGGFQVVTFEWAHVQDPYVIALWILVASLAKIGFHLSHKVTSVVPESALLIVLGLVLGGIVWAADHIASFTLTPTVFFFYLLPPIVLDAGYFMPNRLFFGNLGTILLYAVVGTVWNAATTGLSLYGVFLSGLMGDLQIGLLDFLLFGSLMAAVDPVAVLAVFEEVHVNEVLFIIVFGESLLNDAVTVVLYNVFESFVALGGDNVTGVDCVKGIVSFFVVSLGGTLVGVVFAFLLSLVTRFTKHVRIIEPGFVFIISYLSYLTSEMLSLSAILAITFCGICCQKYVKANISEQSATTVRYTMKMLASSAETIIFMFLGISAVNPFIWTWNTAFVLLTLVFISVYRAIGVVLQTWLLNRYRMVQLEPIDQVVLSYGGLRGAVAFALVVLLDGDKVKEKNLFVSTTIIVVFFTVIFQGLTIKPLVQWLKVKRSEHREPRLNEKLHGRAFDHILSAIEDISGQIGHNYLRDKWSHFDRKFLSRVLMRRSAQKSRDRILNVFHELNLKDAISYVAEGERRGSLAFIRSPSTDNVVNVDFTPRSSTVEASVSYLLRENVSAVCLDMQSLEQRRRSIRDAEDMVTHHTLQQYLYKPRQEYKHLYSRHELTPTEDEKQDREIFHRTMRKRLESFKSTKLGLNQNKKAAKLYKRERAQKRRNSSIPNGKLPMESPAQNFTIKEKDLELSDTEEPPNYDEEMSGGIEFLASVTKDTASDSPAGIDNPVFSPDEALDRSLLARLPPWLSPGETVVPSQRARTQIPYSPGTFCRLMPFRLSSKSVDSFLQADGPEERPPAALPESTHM
As to the kind of experiment: Determination of the NHE-inhibitory effect (recovery of intracellular pH after acidification, BCECF). Format: cell-based. As to conditions: BCECF fluorescence, NHE subtype not given. As to the method:
[drawing 82] was obtained in analogy to the method indicated in Example 16 from 6,8-dichloro-2-methyl-4(R)-[2N-(2-ethoxy-3,4-dioxocyclobuten-1-yl)amino]-phenyl-1,2,3,4-tetrahydroisoquinoline (Example 6) and methylamine. Crystalline solid, m.p. 265° C. Pharmacological Data: Assay: Determination of the NHE-Inhibitory Effect
In this assay, the recovery of the intracellular pH (pHj) after an acidification which occurs even under bicarbonate-free conditions with functional NHE was determined. To this end, the pHj was determined using the pH-sensitive fluorescent dye BCECF (calbiochem, the precursor BCECF-AM was employed). The cells were initially loaded with BCECF. The BCECF fluorescence was determined in a ratio fluorescence spectrometer (Photon Technology International, South Brunswick, N.J., USA) with excitation wavelengths of 505 and 440 nm and an emission wavelength of 535 nm and converted into the pHj using calibration plots. The cells had been incubated in NH4Cl buffer (pH 7.4) for the BCECF loading (NH4Cl buffer: 115 mM NaCl, 20 mM NH4Cl, 5 mM KCl, 1 mM CaCl2, 1 mM MgSO4, 20 mM Hepes, 5 mM glucose, 1 mg/ml BSA; a pH of 7.4 was adjusted with 1 M NaOH). The intracellular acidification was induced by adding 975 μl of an NH4Cl-free buffer (see below) to 25 μl aliquots of the cells incubated in NH4Cl buffer. The subsequent rate of pH recovery was recorded for two minutes with NHE1, five minutes with NHE2 and three minutes with NHE3. To calculate the inhibitory power of the tested substances, the cells were initially investigated in buffers with which there was complete or absolutely no pH recovery. For complete pH recovery (100%), the cells were incubated in Na^+-containing buffer (133.8 mM NaCl, 4.7 mM KCl, 1.25 mM CaCl2, 1.25 mM MgCl2, 0.97 mM Na2HPO4, 0.23 mM NaH2PO4, 5 mM Hepes, 5 mM glucose, a pH of 7.0 was adjusted with 1 M NaOH). To determine the 0% value, the cells were incubated in an Na^+-free buffer (133.8 mM choline chloride, 4.7 mM KCl, 1.25 mM CaCl2, 1.25 mM MgCl2, 0.97 mM K2HPO4, 0.23 mM KH2PO4, 5 mM Hepes, 5 mM glucose, a pH of 7.0 was adjusted with 1 M NaOH). The substances to be tested were made up in the Na^+-containing buffer. The recovery of the intracellular pH at each tested concentration of a substance was expressed as a percentage of the maximum recovery. The IC50 of the respective substance for the individual NHE subtypes was calculated from the percentages of pH recovery using the Sigma Plot program.

Structures are written as SMILES.

The IC50 is the concentration that inhibits the measured activity by half. A higher IC50 goes with a need for much substance. A word on the melting point: it is the temperature, or range, at which the solid turns liquid. In turn, `CN1Cc2c(Cl)cc(Cl)cc2C(c2ccc(Nc3c(N(C)C)c(=O)c3=O)cc2)C1` (stereo not shown) [Example 18, 6,8-dichloro-2-methyl-4-[4N-(2-dimethylamino-3,4-dioxocyclobuten-1-yl)amino]phenyl-1,2,3,4-tetrahydroisoquinoline] showed a melting point of 208 to 214 °C. Also, the IC50 at NHE3 was determined as 0.26 µM.

`CCN(CC)c1c(Nc2ccc(C3CN(C)Cc4c(Cl)cc(Cl)cc43)cc2)c(=O)c1=O` (stereo not shown) [Example 19, 6,8-dichloro-2-methyl-4-[4N-(2-diethylamino-3,4-dioxocyclobuten-1-yl)amino]phenyl-1,2,3,4-tetrahydroisoquinoline] registered a melting point of 275 to 280 °C. The compound also displayed a half-maximal inhibitory concentration (IC50) on NHE3 of 1.15 µM.

At NHE3, `CN1Cc2c(Cl)cc(Cl)cc2[C@H](c2cccc(Nc3c(N(C)C)c(=O)c3=O)c2)C1` [Example 22, 6,8-dichloro-2-methyl-4(S)-[3N-(2-dimethylamino-3,4-dioxocyclobuten-1-yl)amino]phenyl-1,2,3,4-tetrahydroisoquinoline] had an IC50 of 0.0985 µM.

For the compound `CCCN(CCC)c1c(Nc2ccc(C3CN(C)Cc4c(Cl)cc(Cl)cc43)cc2)c(=O)c1=O` (stereo not shown) [Example 24, 6,8-dichloro-2-methyl-4-[4N-(2-dipropylamino-3,4-dioxocyclobuten-1-yl)amino]phenyl-1,2,3,4-tetrahydroisoquinoline], the IC50 against NHE3 came out at 2.49 µM.

`CC(C)CN(C)c1c(Nc2ccc(C3CN(C)Cc4c(Cl)cc(Cl)cc43)cc2)c(=O)c1=O` (stereo not shown) [Example 25, 6,8-dichloro-2-methyl-4-[4N-(2-(N-isobutyl-N-methylamino)-3,4-dioxocyclobuten-1-yl)amino]phenyl-1,2,3,4-tetrahydroisoquinoline] yielded a melting point of over 310 °C. On NHE3, this compound returned an IC50 of 2.81 µM.

In turn, `COCCN(C)c1c(Nc2ccc(C3CN(C)Cc4c(Cl)cc(Cl)cc43)cc2)c(=O)c1=O` (stereo not shown) [Example 26] displayed a melting point of 206 to 210 °C. This compound also returned an IC50 against NHE3 of 1.7 µM.

As to `CCN(CC)c1c(Nc2ccc([C@@H]3CN(C)Cc4c(Cl)cc(Cl)cc43)cc2)c(=O)c1=O` [Example 27, 6,8-dichloro-2-methyl-4(S)-[4N-(2-diethylamino-3,4-dioxocyclobuten-1-yl)amino]phenyl-1,2,3,4-tetrahydroisoquinoline], the melting point fell in the range of 220 to 225 °C. Moreover, the IC50 on NHE3 was found to be 0.21 µM.

For `CC(C)N(C)c1c(Nc2ccc([C@@H]3CN(C)Cc4c(Cl)cc(Cl)cc43)cc2)c(=O)c1=O` [Example 28, 6,8-dichloro-2-methyl-4(S)-[4N-(2-(N-isopropyl-N-methylamino)-3,4-dioxocylcobuten-1-yl)amino]phenyl-1,2,3,4-tetrahydroisoquinoline], the melting point was 165 to 175 °C (dec.). The compound also showed an IC50 at NHE3 of 0.26 µM.

The compound `CCCN(CC1CC1)c1c(Nc2ccc(C3CN(C)Cc4c(Cl)cc(Cl)cc43)cc2)c(=O)c1=O` (stereo not shown) [Example 29, 6,8-dichloro-2-methyl-4-[4N-(2-(N-cyclopropylmethyl-N-propylamino)-3,4-dioxocyclobuten-1-yl)amino]phenyl-1,2,3,4-tetrahydro-isoquinoline] gave a melting point of 134 to 144 °C. The IC50 at NHE3 is 7.14 µM.

For `CCN(CC)c1c(Nc2cccc([C@@H]3CN(C)Cc4c(Cl)cc(Cl)cc43)c2)c(=O)c1=O` [Example 30], the melting point lay within 125 to 135 °C. Besides, the IC50 at NHE3 is 0.14 µM.

`CC(C)N(C)c1c(Nc2cccc([C@@H]3CN(C)Cc4c(Cl)cc(Cl)cc43)c2)c(=O)c1=O` [Example 31] came in with a melting point of 135 to 150 °C. The IC50 against NHE3 is 0.13 µM.

In turn, `CCN(c1c(Nc2ccc([C@@H]3CN(C)Cc4c(Cl)cc(Cl)cc43)cc2)c(=O)c1=O)C(C)C` [Example 32] yielded a melting point of 160 to 190 °C. Moreover, the IC50 against NHE3 worked out at 0.68 µM.

As for `CCCN(C)c1c(Nc2cccc([C@@H]3CN(C)Cc4c(Cl)cc(Cl)cc43)c2)c(=O)c1=O` [Example 33], the melting point lay in the range of 135 to 140 °C. The compound further showed a concentration for half-maximal inhibition (IC50) at NHE3 of 0.031 µM.

In the case of `CN1Cc2c(Cl)cc(Cl)cc2[C@H](c2cccc(Nc3c(N4CCCC4)c(=O)c3=O)c2)C1` [Example 34, 6,8-dichloro-2-methyl-4(S)-[3N-(2-N-pyrrolidino-3,4-dioxocyclobuten-1-yl)amino]phenyl-1,2,3,4-tetrahydroisoquinoline], the melting point fell in the range of 138 to 143 °C. The same compound returned an IC50 at NHE3 of 0.052 µM.

The compound `CN1Cc2c(Cl)cc(Cl)cc2[C@H](c2ccc(Nc3c(N4CCCC4)c(=O)c3=O)cc2)C1` [Example 36, 6,8-dichloro-2-methyl-4(S)-[4N-(2-N-pyrrolidino-3,4-dioxocyclobuten-1-yl)amino]phenyl-1,2,3,4-tetrahydroisoquinoline] had a melting point of 264 to 270 °C. Besides, the IC50 on NHE3 came to 0.23 µM.

Consider `CCCN(C)c1c(Nc2ccccc2[C@@H]2CN(C)Cc3c(Cl)cc(Cl)cc32)c(=O)c1=O` [Example 37], for which the melting point was in the range of 236 to 240 °C. Moreover, at NHE3, the IC50 turned out to be 0.85 µM.

For `CN1Cc2c(Cl)cc(Cl)cc2C(c2ccc(Nc3c(N(C)Cc4ccccc4)c(=O)c3=O)cc2)C1` (stereo not shown) [Example 38], the melting point lay in the range of 158 to 162 °C. In addition, it took 8 µM to reach half-maximal inhibition against NHE3 (IC50).

As for `CCN(CC)c1c(Nc2ccccc2[C@@H]2CN(C)Cc3c(Cl)cc(Cl)cc32)c(=O)c1=O` [Example 39, 6,8-dichloro-2-methyl-4(R)-[2N-(2-diethylamino-3,4-dioxocyclobuten-1-yl)amino]phenyl-1,2,3,4-tetrahydroisoquinoline], the melting point lay within 246 to 250 °C. The compound further came in with an IC50 at NHE3 of 1.52 µM.

The compound `CCCN(CCC)c1c(Nc2ccccc2[C@@H]2CN(C)Cc3c(Cl)cc(Cl)cc32)c(=O)c1=O` [Example 40] had a melting point of 190 to 194 °C. Further, it took 0.24 µM to reach half-maximal inhibition on NHE3 (IC50).

Consider `CN1Cc2c(Cl)cc(Cl)cc2[C@H](c2ccccc2Nc2c(N3CCCC3)c(=O)c2=O)C1` [Example 41, 6,8-dichloro-2-methyl-4(R)-[2N-(2-N-pyrrolidino-3,4-dioxocyclobuten-1-yl)amino]phenyl-1,2,3,4-tetrahydroisoquinoline], for which the melting point lay in the range of 220 to 224 °C. At NHE3, the IC50 was determined as 0.11 µM.

`CC(C)N(C)c1c(Nc2ccccc2[C@@H]2CN(C)Cc3c(Cl)cc(Cl)cc32)c(=O)c1=O` [Example 42] showed a melting point of 210 to 214 °C. Also, at NHE3, it took 0.15 µM to reach half-maximal inhibition (IC50).
